Measured values published in article PMC9780942, “Antimicrobial Activity and Immunomodulatory Properties of Acidocin A, the Pediocin-like Bacteriocin with the Non-Canonical Structure” (Membranes, 2022).
Positions of bridges follow the written chain, without caps; N, C: chain ends. No end group written: not given here.

Assays:
M. phlei Ac-1221 = assay type: cell-based; details: 24 h
Description: (§1) Antibacterial activity of recombinant bacteriocins against a number of Gram-positive and Gram-negative bacteria (Table S2) was determined by the method of two-fold serial dilutions in a liquid medium. Two-fold serial dilutions of bacteriocins were prepared in sterile 96-well flat-bottom polystyrene microplates (Eppendorf, Hamburg, Germany) (Cat. No. 0030730.011) in a volume of 50 µL of sterile 0.1% bovine serum albumin (BSA) (SERVA Electrophoresis GmbH, Heidelberg, Germany) to prevent non-specific sorption of peptides to the surface of the plate wells [23]. Mid-log phase bacterial cultures were diluted with the 2x Mueller-Hinton broth (MHB) (Sigma-Aldrich, St. Louis, MO, USA) to a final cell concentration of 10^6 colony forming units (CFU) per mL. To determine the activity of bacteriocins against Listeria and Enterococci, 3% tryptic soy broth (TSB) (Merck-Millipore, Burlington, MA, USA) was used instead of MHB. Aliquots of 50 μL of diluted bacterial suspensions were added to each well of the plate, which was then incubated at 37 °C and 950 rpm for 24 h using thermostatable plate shaker PST-60HL-4 (Biosan, Riga, Latvia). As a negative control, 50 µL of the sterile growth medium (2xMHB or 6% TSB) was added to the wells containing 50 µL of 0.1% BSA. The values of the minimum inhibitory concentrations (MIC) were determined as the minimum concentration of the peptide, at which there was no visible growth of bacterial culture. Incubation for 2 h with 20 µg/mL chromogenic substrate resazurin (Sigma-Aldrich, St. Louis, MO, USA) was used to detect viable bacterial cells if they were difficult to visually detect. To study the effect of inorganic salts on the antimicrobial activity of bacteriocins, antibacterial activity assay was carried out in MHB medium supplemented with 0.9% NaCl.

E. coli SQ110 = assay type: cell-based; details: SQ110, 24 h
Description: as §1

B. licheniformis B-511 = assay type: cell-based; details: 24 h
Description: as §1

M. luteus Ac-2229 = assay type: cell-based; details: Ac-2229, 24 h
Description: as §1

E. coli ML-35p = assay type: cell-based; details: 24 h
Description: as §1

E. coli XDR CI 1057 = assay type: cell-based; details: XDR CI 1057, 24 h
Description: as §1

S. aureus 209P = assay type: cell-based; details: 24 h
Description: as §1

A. baumannii XDR CI 2675 = assay type: cell-based; details: XDR CI 2675, 24 h
Description: as §1

[1] = test system: P. aeruginosa MDR CI 1995; assay type: cell-based; details: MDR CI 1995, 24 h
Description: as §1

L. lactis MK66 = assay type: cell-based; details: MK66, 24 h
Description: as §1

E. coli ATCC 25922 = assay type: cell-based; details: ATCC 25922, 24 h
Description: as §1

B. subtilis B-886 = assay type: cell-based; details: B-886, 24 h
Description: as §1

L. monocytogenes EGD = assay type: cell-based, Listeria monocytogenes; details: 24 h
Description: as §1

[2] = test system: E. coli ML-35p outer membrane; assay: Outer membrane permeability assay with nitrocefin; assay type: cell-based; details: PBS pH 7.4 with NaCl, 35 °C, absorbance 492 nm, three independent experiments
Description: (§2) The ability of the peptides to disrupt the integrity of bacterial membranes was assessed using chromogenic substrates that are unable to enter the intact cell. For these assays, E. coli strain ML-35p was chosen that constitutively expresses β-lactamase (secreted into the periplasmic space), β-galactosidase (that is active in cytoplasm), and lacks lactose permease. Nitrocefin, which is a substrate for lactamase, served as an indicator of increased outer membrane permeability. o-Nitrophenyl-β-D-galactopyranoside (ONPG), a substrate for […], was used to assess the integrity of the cytoplasmic membrane. The bacterial cultures were grown to stationary phase in 3% TSB medium at 37 °C overnight. The cells were washed three times with cold 10 mM phosphate-buffered saline (PBS), pH 7.4 ([…], 2.7 mM KCl, 10 mM Na2HPO4, 1.76 mM KH2PO4), and diluted to the concentration of 3.3 × 10^7 CFU/mL with 10 mM PBS (pH 7.4), containing increased concentration of NaCl (1.2%, or 205 mM) and dissolved nitrocefin (Merck-Millipore, Burlington, MA, USA) or ONPG (AppliChem GmbH, Darmstadt, Germany). […] The plate was incubated at 35 °C, 500 rpm, and the absorbance of the hydrolysis products of ONPG or nitrocefin was measured spectrophotometrically at regular intervals at 405 nm or 492 nm, respectively, using AF2200 microplate reader (Eppendorf, Hamburg, Germany). […]

[3] = test system: E. coli ML-35p cytoplasmic membrane; assay: Cytoplasmic membrane permeability assay with ONPG; assay type: cell-based; details: PBS pH 7.4 with NaCl, 35 °C, absorbance 405 nm, three independent experiments
Description: as §2

L. lactis MK43 = assay: Antibacterial activity assay (MIC), two-fold serial dilutions in liquid medium; assay type: cell-based; details: MHB, 0.1% BSA, 37 °C, 24 h, no visible growth
Description: as §1

| Sequence | Minimum Inhibitory Concentration (M. phlei Ac-1221) [µM] | Minimum Inhibitory Concentration (E. coli SQ110) [µM] | Minimum Inhibitory Concentration (B. licheniformis B-511) [µM] | Minimum Inhibitory Concentration (M. luteus Ac-2229) [µM] | Minimum Inhibitory Concentration (E. coli ML-35p) [µM] | Minimum Inhibitory Concentration (E. coli XDR CI 1057) [µM] | Minimum Inhibitory Concentration (S. aureus 209P) [µM] | Minimum Inhibitory Concentration (A. baumannii XDR CI 2675) [µM] | Minimum Inhibitory Concentration [1] [µM] | Minimum Inhibitory Concentration (L. lactis MK66) [µM] | Minimum Inhibitory Concentration (E. coli ATCC 25922) [µM] | Minimum Inhibitory Concentration (B. subtilis B-886) [µM] | Minimum Inhibitory Concentration (L. monocytogenes EGD) [µM] | Effect on outer membrane integrity (nitrocefin hydrolysis kinetics) [2] | Effect on cytoplasmic membrane integrity (ONPG hydrolysis kinetics) [3] | Minimum Inhibitory Concentration (L. lactis MK43) [µM] | Minimum inhibitory concentration in the presence of NaCl (B. licheniformis B-511) [µM] | Minimum inhibitory concentration in the presence of NaCl (L. lactis MK66) [µM] | Minimum inhibitory concentration in the presence of NaCl (B. subtilis B-886) [µM] |
| --- | --- | --- | --- | --- | --- | --- | --- | --- | --- | --- | --- | --- | --- | --- | --- | --- | --- | --- | --- |
| TYYGTNGVSCNKKGCSVDWGKAISIIGNNSAANLATGGAAGWKS (disulfide 10-15) [AviA(T)] | >32 | >32 | >32 | >32 | >32 | >32 | >32 | >32 | >32 | >32 | >32 | >32 | >32 | with the exception of AviA(T), were able to disrupt its integrity | melittin >> acidocin A ≈ pediocin box mutants > peptides without a disulfide bond > avicin A >> AviA(T) | >32 |  |  |  |
| KTYYGTNGVHCTKNSLWGKVRLKNVKYDQNTTYIGRLQDILLGWATGAFGKTFH [OR-7(VI)] | 32 | >64 | 8 | >32 | >32 | >64 | >32 | >32 | >32 | 4 | >32 | 16 | >64 | reduced |  | >32 | > 32 | > 32 | > 32 |
